Results taken from ChEMBL document CHEMBL5303573, “Mapping human microbiome drug metabolism by gut bacteria and their genes” (Nature, 2019).

Assays:
Type in all cases: ADME
Design in all cases: dose 2 uM
Conditions in all cases: 2 µM
[1] = biological target: T1, Acylhydrolase (Bacteroides thetaiotaomicron, UniProt Q8AA96); experiment: (§1) The drug is tested on Bacteroides thetaiotaomicron strain: VPI-5482 for biotransformation. The drug concentrations were measured before and after a 12-h incubation by liquid-chromatography-coupled mass spectrometry (LC–MS)
T1 sequence (Q8AA96 whole entry): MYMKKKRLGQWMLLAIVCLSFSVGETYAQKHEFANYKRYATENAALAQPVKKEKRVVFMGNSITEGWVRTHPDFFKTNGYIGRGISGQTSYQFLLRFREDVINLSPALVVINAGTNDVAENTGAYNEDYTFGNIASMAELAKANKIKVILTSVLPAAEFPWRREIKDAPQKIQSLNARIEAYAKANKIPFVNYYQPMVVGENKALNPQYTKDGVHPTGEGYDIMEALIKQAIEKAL

[2] = biological target: T2, Acyltransferase (Bacteroides thetaiotaomicron, UniProt Q8A575); experiment: as §1
T2 sequence (Q8A575 whole entry): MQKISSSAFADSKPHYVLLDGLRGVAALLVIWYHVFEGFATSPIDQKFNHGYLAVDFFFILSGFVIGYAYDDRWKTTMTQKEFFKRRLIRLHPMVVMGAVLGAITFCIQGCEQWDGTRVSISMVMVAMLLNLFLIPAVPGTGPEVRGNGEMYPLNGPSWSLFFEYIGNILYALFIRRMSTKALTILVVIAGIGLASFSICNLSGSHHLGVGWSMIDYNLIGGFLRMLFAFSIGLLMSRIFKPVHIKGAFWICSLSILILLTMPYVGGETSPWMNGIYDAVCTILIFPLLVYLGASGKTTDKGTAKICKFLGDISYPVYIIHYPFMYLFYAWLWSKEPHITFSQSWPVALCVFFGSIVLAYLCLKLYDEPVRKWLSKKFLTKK

[3] = biological target: T3, Lipoprotein (Bacteroides thetaiotaomicron, UniProt Q8A343); experiment: as §1
T3 sequence (Q8A343 whole entry): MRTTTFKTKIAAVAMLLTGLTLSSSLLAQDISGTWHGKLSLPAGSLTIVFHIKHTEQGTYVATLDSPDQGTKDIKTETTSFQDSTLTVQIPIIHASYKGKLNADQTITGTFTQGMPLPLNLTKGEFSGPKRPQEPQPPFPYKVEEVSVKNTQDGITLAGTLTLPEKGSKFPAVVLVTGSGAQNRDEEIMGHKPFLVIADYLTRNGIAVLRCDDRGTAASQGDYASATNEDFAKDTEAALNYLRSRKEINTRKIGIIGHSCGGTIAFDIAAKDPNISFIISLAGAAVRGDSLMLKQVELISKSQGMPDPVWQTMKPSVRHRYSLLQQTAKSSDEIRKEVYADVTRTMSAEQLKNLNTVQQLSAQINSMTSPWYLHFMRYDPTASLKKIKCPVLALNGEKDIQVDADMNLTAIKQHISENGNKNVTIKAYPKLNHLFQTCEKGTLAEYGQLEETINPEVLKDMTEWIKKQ

[4] = biological target: General stress protein (Bacteroides thetaiotaomicron, UniProt Q8A7U5); experiment: as §1
[5] = biological target: T4, NADH dehydrogenase/NAD(P)H nitroreductase (Bacteroides thetaiotaomicron, UniProt Q8A8L9); experiment: as §1
T4 sequence (Q8A8L9 whole entry): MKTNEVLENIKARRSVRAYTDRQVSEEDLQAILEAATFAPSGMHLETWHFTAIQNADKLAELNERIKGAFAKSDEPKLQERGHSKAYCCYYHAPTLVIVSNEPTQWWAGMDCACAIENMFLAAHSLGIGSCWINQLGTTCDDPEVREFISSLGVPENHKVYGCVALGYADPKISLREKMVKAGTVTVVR

[6] = biological target: T5, Sialic acid-specific 9-O-acetylesterase (Bacteroides thetaiotaomicron, UniProt Q8A0D0); experiment: as §1
T5 sequence (Q8A0D0 whole entry): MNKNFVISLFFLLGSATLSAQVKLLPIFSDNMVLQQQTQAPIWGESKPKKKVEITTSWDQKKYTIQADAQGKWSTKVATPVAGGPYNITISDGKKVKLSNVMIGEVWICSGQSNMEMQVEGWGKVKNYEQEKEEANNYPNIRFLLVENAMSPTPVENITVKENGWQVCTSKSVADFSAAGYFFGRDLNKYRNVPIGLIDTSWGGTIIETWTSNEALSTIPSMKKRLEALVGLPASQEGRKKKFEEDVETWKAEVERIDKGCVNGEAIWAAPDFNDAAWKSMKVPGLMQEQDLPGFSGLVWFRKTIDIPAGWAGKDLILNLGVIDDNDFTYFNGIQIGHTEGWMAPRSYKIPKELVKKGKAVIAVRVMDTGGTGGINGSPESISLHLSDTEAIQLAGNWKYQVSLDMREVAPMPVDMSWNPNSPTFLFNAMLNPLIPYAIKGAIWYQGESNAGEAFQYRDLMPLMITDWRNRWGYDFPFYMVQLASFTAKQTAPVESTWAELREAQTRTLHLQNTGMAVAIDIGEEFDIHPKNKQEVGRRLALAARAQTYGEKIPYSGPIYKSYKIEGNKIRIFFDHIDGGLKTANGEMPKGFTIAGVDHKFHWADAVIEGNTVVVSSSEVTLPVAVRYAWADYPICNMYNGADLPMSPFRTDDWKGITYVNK

[7] = biological target: T6, Sialic acid-specific acetylesterase (Bacteroides thetaiotaomicron, UniProt Q8A331); experiment: as §1
T6 sequence (Q8A331 whole entry): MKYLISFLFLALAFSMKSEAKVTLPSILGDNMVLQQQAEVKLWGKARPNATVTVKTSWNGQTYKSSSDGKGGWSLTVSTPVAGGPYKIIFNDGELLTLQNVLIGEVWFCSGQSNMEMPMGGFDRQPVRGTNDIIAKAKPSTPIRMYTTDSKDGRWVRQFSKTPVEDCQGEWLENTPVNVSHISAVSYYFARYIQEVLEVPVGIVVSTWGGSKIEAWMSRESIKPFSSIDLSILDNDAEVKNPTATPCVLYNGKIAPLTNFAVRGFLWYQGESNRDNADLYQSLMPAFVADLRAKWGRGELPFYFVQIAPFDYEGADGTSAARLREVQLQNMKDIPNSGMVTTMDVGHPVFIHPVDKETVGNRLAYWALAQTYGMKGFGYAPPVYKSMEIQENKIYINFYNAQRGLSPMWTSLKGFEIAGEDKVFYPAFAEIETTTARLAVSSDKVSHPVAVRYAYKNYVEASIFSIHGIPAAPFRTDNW

[8] = biological target: T7, Acetyl esterase (Acetylxylosidase) (Bacteroides thetaiotaomicron, UniProt Q8ABF8); experiment: as §1
T7 sequence (Q8ABF8 whole entry): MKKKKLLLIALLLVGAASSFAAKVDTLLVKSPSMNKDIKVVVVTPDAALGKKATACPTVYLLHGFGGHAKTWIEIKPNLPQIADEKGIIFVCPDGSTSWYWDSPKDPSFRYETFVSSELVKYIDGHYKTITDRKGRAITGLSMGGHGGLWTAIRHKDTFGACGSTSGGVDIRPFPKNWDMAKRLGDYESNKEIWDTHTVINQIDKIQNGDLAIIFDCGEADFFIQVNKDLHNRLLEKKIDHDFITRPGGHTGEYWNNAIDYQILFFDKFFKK

Sequence of General stress protein (Q8A7U5 1-138, change not shown): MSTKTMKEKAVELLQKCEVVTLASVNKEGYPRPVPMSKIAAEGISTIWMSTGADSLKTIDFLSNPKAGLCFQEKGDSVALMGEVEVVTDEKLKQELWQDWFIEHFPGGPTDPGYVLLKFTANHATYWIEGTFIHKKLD

Compound | Bacterial Biotransformation [1] | Bacterial Biotransformation [2] | Bacterial Biotransformation [3] | Bacterial Biotransformation [4] | Bacterial Biotransformation [5] | Bacterial Biotransformation [6] | Bacterial Biotransformation [7] | Bacterial Biotransformation [8]
N#Cc1ccc2c(c1)N(CCCN1CCC(O)CC1)c1ccccc1S2 [PERICIAZINE] | Compound NOT metabolized | Compound metabolized | Compound NOT metabolized | Compound NOT metabolized | Compound NOT metabolized | Compound NOT metabolized | Compound NOT metabolized | Compound NOT metabolized
C[C@]12CCC(=O)C=C1[C@@H]1C[C@@H]1[C@H]1[C@@H]3[C@@H]4C[C@@H]4[C@@]4(CCC(=O)O4)[C@@]3(C)CC[C@@H]12 [DROSPIRENONE] | Compound NOT metabolized | Compound NOT metabolized | Compound NOT metabolized | Compound NOT metabolized | Compound NOT metabolized | Compound NOT metabolized | Compound NOT metabolized | Compound NOT metabolized
